From patent US5843885A, “ICAM-1/LFA-1 short-chain peptides and method of using same” (The University of Kansas, priority 1997, dated 1998)
Where no end group is shown, it is not given here.

Assays:
[1] = test system: Molt3 cells; assay: Cell metabolic assay (MTT); format: cell-based, human
Procedure: After taking the photographs in Example 3 (and in some instances no photographs were taken), cell metabolic activity was assessed by an MTT assay. A 37.5 μl portion of MTT dye (purchased from SIGMA of St. Louis, Mo.), i.e., 3-[4,5-dimethyl thiazole-2yl]-2, 5-diphenyl tetrazolium bromide; thiazolyl blue) was added to each well, and incubated with the cells at 37° C. for about six hours. After incubation, a 250 μl quantity of a MTT solubilization solution (of a type that may be purchased from either Fischer Scientific of St. Louis, Mo. or BCD Labs of Lawrence, Kans.) was added to each well, and incubated with the cells at room temperature overnight. In the morning, the spectrophotometric absorption of each plate was determined at 570 nm in a microplate ELISA reader manufactured by Cambridge Technologies of Watertown, Mass., in order to assess cell viability as an indicator of potential peptide toxicity.

[2] = biological target: T1, ICAM-1 on Molt3 cells (Homo sapiens, UniProt P05362); assay: Conformation modulator assay: binding of FITC-labeled RB-1-88 peptide to T-cells (FACS); conditions: first peptide 4550 μM, then FITC-labeled RB-1-88 1.90 μM
T1 construct: host or cells: Molt3 human T-cell line
Procedure: The antibody binding assay of Example 2 was twice repeated at a peptide concentration of 4550 μM, each time substituting a 455 nmol quantity of synthetic peptide selected from the group consisting of ICAM-based peptide SC-3-111 (Sequence ID No. 10) and LFA-based peptide LJCRF-4 (Sequence ID No. 16) in respective assays. Following incubation for 30 minutes at 37° C. after introduction of the first peptides, both incubated culture were supplemented by an additional quantity of FITC-labeled RB-1-88 (Sequence ID No. 19) peptide in a quantity sufficient to provide a 1.90 μM concentration in the cell/PBS solution.
Following addition of the RB-1-88 (Sequence ID No. 19) peptide, the mixture was incubated for 30 minutes at 4° C., washed three times with 500 μl PBS/BSA, resuspended in 500 μl PBS/BSA and immediately subjected to a flow cytometer analysis as before. Table 3 presents the results of this analysis, which are also depicted in FIGS. 8 (SC-3-111) and 9 (LJCRF-4).

[3] = biological target: T2, ICAM-1 (CD54) on Molt3 cells (Homo sapiens, UniProt P05362); assay: Antibody binding assay (FACS): anti-CD54 mAb binding to Molt3 T-cells; conditions: for Fluorescence, % change from control of the medium fluorescence intensity: mAb CD54
T2 construct: host or cells: Molt3 human T-cell line

[4] = biological target: T3, LFA-1 (CD11a) on Molt3 cells (Homo sapiens, UniProt P20701); assay: Antibody binding assay (FACS): anti-CD11a mAb binding to Molt3 T-cells; conditions: for Fluorescence, % change from control of the medium fluorescence intensity: mAb CD11a, average ± standard error; for blocking efficiency: single run (FIGS. 2 and 3)
T3 construct: host or cells: Molt3 human T-cell line
Procedure: A 1 ml quantity of the Molt3 inoculum was warmed to 37° C. and transferred by pipette into about 25 ml of a growth culture medium including RPMI 1640 lymphocyte growth medium (Fisher Scientific of St. Louis, Mo.) mixed with 10% by volume fetal calf serum, 100 units/ml penicillin, 100 μg/ml streptomycin and 2 mM glutamine. The inoculated culture was incubated for three to four days at 37° C. under a normal atmosphere having about 5% CO2 added thereto. This culture was capable of being maintained indefinitely by siphoning away the top (non-cell containing) layer and adding 50 ml (or more) of growth culture medium at intervals of three to four days.
An aqueous buffer solution including Dulbecco's phosphate buffered saline and bovine serum albumin ("PBS/BSA solution") was prepared for use, and included a mixture of 200 mg KH2 PO4, 1.15 g Na2 HPO4, 100 mg CaCl2, 200 mg KC1, 100 mg MgCl2.6H2 O, 8 g NaCl, with distilled water added to a final 1 liter volume at room temperature, thus, forming a "PBS" solution of pH 7.4 to which was added 0.5% by weight bovine serum albumin.
An aliquot of about 7 ml was removed from the incubated culture medium and subjected to washing with the PBS/BSA solution. The washing procedure was initiated by placing the aliquot in a centrifuge (Model GT422 from Jouan, distributed Piruscio & Assoc. of Manchester, Mo.) at 1400 rpm for 6.5 minutes to separate the cells from the growth medium. The supernatant fluid was decanted, a 5 ml portion of PBS/BSA solution was transferred by pipette into the pellet, and the mixture was again centrifuged as before. The resulting supernatant fluid was decanted and the cells from the pellet were resuspended in PBS/BSA solution at a titer of about 1×10^6 cells/ml. A 500 μl portion of the solution containing the resuspended cells was placed in a microcentrifuge (Marathon 13K/M from Fisher Scientific of St. Louis, Mo.) at 3500 rpm for six minutes, to provide a washed pellet.
[…] The cells were incubated with the peptide cocktail at 37° C. for 45 minutes.
After incubation with the peptide cocktail, several antibodies were successively mixed into the incubated solution. A 75 μl portion of anti-IgM solution (a mixture of 10 μl of goat anti-human IgM stock purchased from Jackson Immuno Research of Westgrove, Pa; and 65 μl of PBS/BSA solution) was added to the peptide cocktail for blocking of nonspecific binding of the secondary antibody. The resulting mixture was incubated for 10 minutes on ice. About 0.1 μg of a primary antibody including mouse IgG anti-human CD11a (purified according to conventional protocols at the University of Kansas Department of Pharmacology and Toxicology from an American Type Culture hybridoma cell line having Catalogue Number HB-202) was next stirred into the mixture, which was then incubated for 30 minutes at room temperature. The incubated mixture was placed in a microcentrifuge at 3500 rpm for six minutes to remove the cells from the mixture, and the cell pellet was washed two times by adding 500 μl aliquots of PBS/BSA solution and microfuging to remove non-bound antibodies from the cells as before. The resulting washed pellet was resuspended in 100 μl of a secondary antibody cocktail including 5 μl of fluorescein isothiocyanate ("FITC") labeled goat anti-mouse IgG (from CALTAG of South San Francisco, Calif.) and 95 μl of PBS/BSA solution. The resulting solution was incubated for 30 minutes at room temperature in the dark.
The incubated solution including the secondary antibody cocktail was microfuged at 3500 rpm for six minutes to remove the cells from the solution, and the cell pellet was washed two times with 500 μl portions of PBS/BSA solution, as before, to remove unbound antibodies. […]

[5] = biological target: Leucocyte Function Associated antigen-1 (LFA-1), on Molt3 human T-cells (human); assay: flow cytometry on Molt3 T-cells preincubated with SC-3-111 (run of FIG. 2); FITC goat anti-mouse IgG secondary
[6] = biological target: Leucocyte Function Associated antigen-1 (LFA-1), on Molt3 human T-cells (human); assay: flow cytometry on Molt3 T-cells; control without peptide; FITC goat anti-mouse IgG secondary
[7] = biological target: Leucocyte Function Associated antigen-1 (LFA-1), on Molt3 human T-cells (human); assay: flow cytometry on Molt3 T-cells; peptide 4550 µM; probe antibody mouse IgG anti-human CD11a; average of 2 runs
[8] = peptide 4550 μM, average ± standard error

T3 sequence (P20701 26-1170): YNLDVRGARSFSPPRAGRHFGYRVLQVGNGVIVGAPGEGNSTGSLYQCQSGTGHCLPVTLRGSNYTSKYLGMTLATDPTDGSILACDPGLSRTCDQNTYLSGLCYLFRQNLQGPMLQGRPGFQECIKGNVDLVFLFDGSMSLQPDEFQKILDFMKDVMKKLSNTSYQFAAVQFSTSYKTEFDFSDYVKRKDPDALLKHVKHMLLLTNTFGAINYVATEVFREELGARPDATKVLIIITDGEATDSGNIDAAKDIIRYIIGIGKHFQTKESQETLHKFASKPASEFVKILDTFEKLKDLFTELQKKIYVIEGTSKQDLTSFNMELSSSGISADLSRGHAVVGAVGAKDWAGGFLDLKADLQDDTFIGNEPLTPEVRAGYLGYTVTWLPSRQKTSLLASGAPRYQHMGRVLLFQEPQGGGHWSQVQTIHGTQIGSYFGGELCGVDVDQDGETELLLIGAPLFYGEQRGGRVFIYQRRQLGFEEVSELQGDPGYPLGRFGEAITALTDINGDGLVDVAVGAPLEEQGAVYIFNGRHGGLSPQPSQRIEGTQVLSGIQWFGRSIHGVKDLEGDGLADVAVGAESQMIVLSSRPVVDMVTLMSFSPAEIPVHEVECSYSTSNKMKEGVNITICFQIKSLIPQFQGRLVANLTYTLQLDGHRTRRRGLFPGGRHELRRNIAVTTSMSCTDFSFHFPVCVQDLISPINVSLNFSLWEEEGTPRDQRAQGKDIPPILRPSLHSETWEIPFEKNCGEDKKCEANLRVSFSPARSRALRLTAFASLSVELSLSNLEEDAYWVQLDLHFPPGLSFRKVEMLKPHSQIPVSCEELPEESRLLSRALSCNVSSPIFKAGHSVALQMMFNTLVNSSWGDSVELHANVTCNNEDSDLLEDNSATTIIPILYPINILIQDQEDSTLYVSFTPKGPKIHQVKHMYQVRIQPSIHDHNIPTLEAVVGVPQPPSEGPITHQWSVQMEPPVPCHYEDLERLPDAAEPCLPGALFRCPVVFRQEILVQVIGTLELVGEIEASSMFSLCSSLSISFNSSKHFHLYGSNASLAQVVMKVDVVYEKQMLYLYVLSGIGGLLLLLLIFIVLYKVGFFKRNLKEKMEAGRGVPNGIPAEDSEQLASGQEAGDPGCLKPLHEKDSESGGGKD
T3 sequence (P05107 23-769 partner): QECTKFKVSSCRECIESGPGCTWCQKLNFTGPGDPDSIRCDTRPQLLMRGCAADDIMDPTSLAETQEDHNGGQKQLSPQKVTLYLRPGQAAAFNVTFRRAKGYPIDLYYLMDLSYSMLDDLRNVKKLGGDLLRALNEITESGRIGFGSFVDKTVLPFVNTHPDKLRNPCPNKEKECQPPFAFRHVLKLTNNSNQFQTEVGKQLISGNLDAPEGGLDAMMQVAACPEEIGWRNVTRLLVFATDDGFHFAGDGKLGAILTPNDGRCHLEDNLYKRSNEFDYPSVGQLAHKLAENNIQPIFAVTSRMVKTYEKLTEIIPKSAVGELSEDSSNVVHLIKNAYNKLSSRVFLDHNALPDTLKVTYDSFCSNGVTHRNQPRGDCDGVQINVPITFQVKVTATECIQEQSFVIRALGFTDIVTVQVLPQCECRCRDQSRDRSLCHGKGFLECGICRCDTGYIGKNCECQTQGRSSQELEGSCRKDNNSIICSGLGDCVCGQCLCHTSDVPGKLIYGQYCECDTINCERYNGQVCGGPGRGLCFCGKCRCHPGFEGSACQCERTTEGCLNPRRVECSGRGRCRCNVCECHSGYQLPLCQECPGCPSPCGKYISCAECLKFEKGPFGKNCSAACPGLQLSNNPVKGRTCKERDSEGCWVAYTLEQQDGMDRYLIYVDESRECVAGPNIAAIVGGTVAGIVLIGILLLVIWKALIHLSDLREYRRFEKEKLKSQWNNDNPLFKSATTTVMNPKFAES
T2 sequence (P05362 28-532): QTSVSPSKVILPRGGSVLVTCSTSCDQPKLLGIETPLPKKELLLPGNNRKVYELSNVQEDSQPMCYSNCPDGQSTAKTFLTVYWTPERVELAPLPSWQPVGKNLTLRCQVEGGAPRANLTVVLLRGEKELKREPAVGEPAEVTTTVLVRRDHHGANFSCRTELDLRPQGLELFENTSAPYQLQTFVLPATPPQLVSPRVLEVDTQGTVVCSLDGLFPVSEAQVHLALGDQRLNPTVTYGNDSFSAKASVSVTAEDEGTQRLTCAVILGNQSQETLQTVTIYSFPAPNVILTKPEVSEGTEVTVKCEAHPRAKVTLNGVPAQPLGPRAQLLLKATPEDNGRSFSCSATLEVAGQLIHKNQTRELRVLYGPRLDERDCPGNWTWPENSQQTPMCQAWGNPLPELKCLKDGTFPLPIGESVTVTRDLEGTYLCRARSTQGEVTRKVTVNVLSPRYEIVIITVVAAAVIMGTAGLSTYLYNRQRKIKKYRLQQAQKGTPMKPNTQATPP
T1 sequence (P05362 28-532): as above

| Molecule | MTT % Viability ([1]; 230 μM) [%] | MTT % Viability ([1]; 460 μM) [%] | MTT % Viability ([1]; 910 μM) [%] | MTT % Viability ([1]; 1820 μM) [%] | Fluorescence, % change from control of the medium fluorescence intensity ([4]; peptide 2275 μM) | Fluorescence, % change from control of the medium fluorescence intensity ([4]; peptide 4550 μM) [%] | other results |
| --- | --- | --- | --- | --- | --- | --- | --- |
| DLSYSLDDLRNVKKLGGDLLRALNE [LJCRF-4] | 101 | 94 | 60 | 11 | – | – | MTT % Viability ([1]; 115 μM): 99%; MTT % Viability ([1]; 115 μM, listed as SC-3-223): 103%; MTT % Viability ([1]; 230 μM, listed as SC-3-223): 109%; MTT % Viability ([1]; 460 μM, listed as SC-3-223): 112%; MTT % Viability ([1]; 910 μM, listed as SC-3-223): 108%; MTT % Viability ([1]; 1820 μM, listed as SC-3-223): 75%; FACS Analysis (RB-1-88 binding), shift from control [2]: +145%; Fluorescence, % change from control of the medium fluorescence intensity ([3]; peptide 2275 μM, average ± standard error): +3 ± 1%; Fluorescence, % change from control of the medium fluorescence intensity ([3]; peptide 6825 μM): +521%; curve shift / median peak enhancement ([3]; single run (FIG. 4), 4550 μM, anti-ICAM-1 mAb): +447% |
| DQPKLLGIETPLPKKELLLPGNNRK [LJCRF-2] | 38 | 38 | 38 | 43 | +48 ± 8% | -43 ± 7 | MTT % Viability ([1]; concentration not given): 38% |
| GVDVDQDGETELIGAPLFYGEQRG [LJCRF-5] | 84 | 81 | 52 | 20 | – | – | MTT % Viability ([1]; 115 μM): 95%; metabolic activity in MTT assay ([1]; 1820 μM): decrease in metabolic activity; Fluorescence, % change from control of the medium fluorescence intensity [3, 8]: -17% |
| ITDGEATDSGNIDAAKDIIYIIGI [LJCRF-6] | – | – | – | – | – | – | Fluorescence, % change from control of the medium fluorescence intensity [3, 8]: -4% |
| KELLLPGNNRKVYELSNVQEDSQP [LJCRF-3] | – | – | – | – | – | -13 ± 19 | – |
| LPRGGSVLVTG [MC-1-80] | – | – | – | – | – | – | metabolic activity in MTT assay ([1]; 910 μM): cellular respiration was enhanced |
| QTSVSPSKVI [SC-3-111] | 93 | 95 | 89 | 69 | -12 ± 4% | -29 ± 2 | MTT % Viability ([1]; concentration not given): 85%; % change of median peak from control ([4]; single run (FIG. 2), 4550 μM, anti-CD11a): -51%; blocking efficiency ([4]; 4550 μM, anti-CD11a): 51% |
| QTSVSPSKVILPRGGSVLVTG [LJCRF-1] | – | 93 | 92 | 66 | -12 ± 2% | -29 ± 3 | blocking efficiency ([4]; 4550 μM, anti-CD11a): 65% |
| mouse IgG anti-human CD11a (from American Type Culture hybridoma cell line HB-202) (antibody) | – | – | – | – | – | – | median peak fluorescence intensity (fluorescence intensity) [5]: 129; median peak fluorescence intensity (fluorescence intensity) [6]: 264 |
| KELLLPGNNRKVYELSNVQEDSQP [LJCRF-3] | – | – | – | – | – | – | % change from control of the median fluorescence intensity (% change from control) [7]: -13 |
